# Test results: PMC8174729, “Inhibition of CMP-sialic acid transport by endogenous 5-methyl CMP” (PLoS ONE, 2021)
# Tests used:
# [1] = biological target: T1, CMP-sialic acid transporter (CST) (Mus musculus, UniProt Q61420); test: FSEC thermal shift binding assay with Kd (also inhibits [3H]CMP-Sia uptake in Sf9 cells, IC50 […]); set-up: gene Slc35a1; Full-length, GFP-tagged mouse CST
# T1 sequence (Q61420 1-336): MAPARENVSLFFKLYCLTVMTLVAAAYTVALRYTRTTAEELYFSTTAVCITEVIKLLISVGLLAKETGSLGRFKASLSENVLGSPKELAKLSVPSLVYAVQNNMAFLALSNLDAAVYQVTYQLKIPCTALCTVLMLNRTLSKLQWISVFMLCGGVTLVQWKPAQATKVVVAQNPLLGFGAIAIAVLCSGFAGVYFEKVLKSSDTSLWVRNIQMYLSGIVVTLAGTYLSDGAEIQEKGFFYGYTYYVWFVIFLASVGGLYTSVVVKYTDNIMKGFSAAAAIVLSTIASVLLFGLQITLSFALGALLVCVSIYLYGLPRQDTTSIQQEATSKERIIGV
# [2] = biological target: T1, CMP-sialic acid transporter (CST); test: X-ray crystal structure at […] Å; FSEC thermal shift binding assay with Kd (also inhibits [3H]CMP-Sia uptake in Sf9 cells, IC50 […]); set-up: gene Slc35a1; Kd: full-length, GFP-tagged mouse CST; crystal: CSTΔC construct, which lacks the last 15 residues (322–336)
Kd [1],Kd [2],Compound
16.1 µM,,Nc1ccn([C@@H]2O[C@H](COP(=O)(O)O)[C@@H](O)[C@H]2O)c(=O)n1 [CMP]
,1 µM,"Cc1cn([C@@H]2O[C@H](COP(=O)(O)O)[C@@H](O)[C@H]2O)c(=O)nc1N [m5CMP, 5-methyl CMP]"
